Data published in EP4744665A1, “COMBINATION OF POLQ INHIBITOR COMPOUND AND ANTI-CANCER THERAPEUTIC AGENT OR RADIOTHERAPY” (Simcere Zaiming Pharmaceutical Co., Ltd., priority 2023, dated 2025).

Assays:
Assay in all cases: Combined use with irradiation (IR), Bliss Independence model (Cell Titer Glo, 7 days)
Type in all cases: cell-based
Details in all cases: combination with IR
NCI-H460 = system: NCI-H460
Protocol: (§1) DLD-1 colorectal adenocarcinoma cells, NUGC4 gastric cancer cells, NCI-H460 non-small cell lung cancer cells, SHP-77 small cell lung cancer cells, and LNCAP prostate cancer cells were cultured in a 1640 medium containing 10% fetal bovine serum. MDA-MB-436 breast cancer cells were cultured in a DMEM medium containing 10% fetal bovine serum. OVCAR3 ovarian cancer cells were cultured in a 1640 medium containing 20% fetal bovine serum and 10 µg/mL bovine insulin. The cells were all cultured at 37 °C with 5% CO2. Cells at the logarithmic growth phase were available for the experiment.
(§2) 100 µL of the cell medium was added to rows A and H and columns 1 and 12 of a 96-well cell culture plate. Cultured cells were resuspended (adherent cells were digested with trypsin) and counted to give information on cell density and viability. The dilution ratio of the resuspended cells required for inoculating a fixed number of cells into 90 µL of the medium in each culture well was calculated based on the cell density information. After the resuspended cells were diluted with the corresponding medium, 90 µL of the diluted cells were transferred to columns 2-11 of rows B-G of a 96-well cell culture plate using an Eppendorf multi-channel pipette (60 wells in total for each plate). The cell culture plate was incubated overnight in an incubator at 37 °C with 5% CO2.
(§3) The test compound was dissolved in DMSO to give a 10 mM stock solution for later use. In the experiment, the compound was further diluted to the corresponding concentration according to the concentration designed in the experiment, and based on this concentration, 4-fold serial gradient dilution was performed to give a total of 10 dose concentrations (the lowest dose was 0, and other specific concentration values were shown in FIG. 2). 10 µL of the diluted compound was added to the corresponding cell plate well, such that the final concentration of DMSO was 0.25%. The compound was incubated with the cells in an incubator at 37 °C with 5% CO2 for 4 h, and then the cell plate was transferred to Cellrad for irradiation (abbreviated as IR) at different doses (see FIG. 2 for specific dose values). After the irradiation was completed, the cell plate was incubated in an incubator at 37 °C with 5% CO2 for another 7 days, Cell Titer Glo was added at 50 µL/well, and the luminescence value of each well was read using an Envision microplate reader.
(§4) The luminescence value of the well containing only the cell medium was taken as the background (RLUbackground, corresponding cell survival rate to be 0%), the cell well containing only 0.25% DMSO without the compound and the irradiation treatment was taken as the maximum signal (RLUDMSO, corresponding cell survival rate to be 100%), and the luminescence values of the remaining wells containing cells and compounds at different concentrations were taken as RLUsample. The survival rate of each cell well was calculated as follows: Survival rate (%) = (RLUsample−RLUbackground)/(RLUDMSO−RLUbackground) × 100% [formula]
(§5) The interaction between the drug and irradiation (synergistic, independent, or antagonistic) was statistically analyzed by the Bliss Independence model using Combenefit software (Bliss, C.I., Bacteriol. Rev., 1956, 20, 243-258). The model assumes that the drug and irradiation act independently. The theoretical expected action curve of the combination was calculated from the following equation: Bliss effect = effect A + effect B−effect A × effect B [formula] wherein effect A is the effect of drug A at a particular concentration. Effect B is the effect of irradiation at a particular dose.
(§6) The Bliss effect is the expected effect when the combination of the drug and irradiation is administered precisely. A negative Bliss score (δ = observed effect - Bliss effect) indicates an antagonistic effect between the drug and irradiation if the observed effect (i.e., the experimentally measured combined effect) is less than the Bliss effect. […]

LNCAP = system: LNCAP
Protocol: as §1, §2, §3, §4, §5, §6

SHP-77 = system: SHP-77
Protocol: as §1, §2, §3, §4, §5, §6

OVCAR3 = system: OVCAR3
Protocol: as §1, §2, §3, §4, §5, §6

DLD-1 = system: DLD-1
Protocol: as §1, §2, §3, §4, §5, §6

MDA-MB-436 = system: MDA-MB-436
Protocol: as §1, §2, §3, §4, §5, §6

NUGC4 = system: NUGC4
Protocol: as §1, §2, §3, §4, §5, §6

Measured: Combined effect

COc1ccc(Cl)cc1-c1cc(C)ncc1C(=O)Nc1nc2ncc(-c3ccc(C#N)cc3)nc2s1.[Na] [Sodium salt of compound I, Sodium Salt of 4-(5-Chloro-2-methoxyphenyl)-N-[6-(4-cyanophenyl)thiazolo[4,5-b]pyrazin-2-yl]-6-methylnicotinamide]
Synergistic: all assays above
